Measurements as given in publication PMC5746282, “Polypyridylruthenium(II) complexes exert anti-schistosome activity and inhibit parasite acetylcholinesterases” (PLoS Neglected Tropical Diseases, 2017).
Like-named read-outs stand apart in the source and are kept apart here.

Legend:
[1] = test system: human bile duct cell line H69; test: MTT cytotoxicity assay; format: cell-based; conditions: 0.1 μM, 72 h
[2] = biological target: acetylcholinesterase (AChE); format: biochemical, S. haematobium
[3] = test system: nucleotide pyrophosphatase-phosphodiesterase 5 (SmNPP-5); format: biochemical, S. mansoni; conditions: 10 µM
[4] = biological target: acetylcholinesterase (AChE); format: biochemical, S. mansoni
[5] = test system: alkaline phosphatase (AP); format: biochemical, S. mansoni; conditions: 10 µM
[6] = test system: acetylcholinesterase (AChE); format: biochemical, S. mansoni; conditions: 1 µM

Row | Compound | cells killed [1] | IC50 [2] | AChE Inhibition (%) ([2]; 1 µM) | SmNPP-5 Inhibition (%) [3] | IC50 [4] | AChE Inhibition (%) ([4]; 1 µM) | AP Inhibition (%) [5] | AChE Inhibition (%) [6]
1 | COP(=O)(OC)OC=C(Cl)Cl [Dichlorvos, dichlorvos] | 100% | – | – | – | – | – | – | –
2 | [Ru(phen)2(Me2bpy)]^2+ | – | 90.2 ± 1.2 µM | 13.3 ± 1.8% | 2% | 67 ± 11.6 µM | 9.3 ± 1.8% | 3% | 66.5 ± 5.8%
